Legend:
[1] = tested on: cardiac tissue model (hiPSC-derived cardiomyocytes co-cultured with vascular-like network); assay: Multielectrode array (MEA) field potential recording: FPD, beating frequency, Na+ spike amplitude; assay type: cell-based, human; conditions: for signs of cardio activity or toxicity: negative controls, up to 30 µM; for signs of cardio activity or toxicity / effect on FPD (in words): MEA; for effect on FPD (in words): acute cumulative exposure
Experimental: Hydrophobic compounds were solubilized in DMSO as 10 mM stocks. The water-soluble compounds were solubilized in distilled water as 1 mM stocks.
Extracellular field potentials were recorded using a Multiwell-MEA-System (Multi Channel Systems) with a 20 kHz sampling frequency on days 8–9 after cardiomyocyte seeding. The temperature was set at 37 °C and the cells were supplied with 5% CO2 during the measurements. Two-minute recordings were obtained as spontaneous baseline beating, after which the cardiac tissue models were exposed to a ½ logarithmic cumulative concentration series spanning from […] of the test compounds. With 24-well plates four replicate wells and with 96-well plates eight replicate wells were used for each compound. The wash-in period between administration of the test compounds and 2-min recording was 8 min. The field potentials were recorded with Multiwell-Screen software (Multi Channel Systems) and analysed with Multiwell-Analyzer software (Multi Channel Systems). The data from the electrodes showing clear beating patterns, sodium spike voltage change over 70 µV, and a detectable T-wave were used for the analyses. Data obtained from the electrodes of one well were averaged. In the analyses, each well was treated as an individual and (the ratio of) test compound-induced changes were calculated against the recorded baseline from the same well. The data was normalized only against the baseline values, not against the vehicle control. All the field potential durations (FPD) were corrected against the changes in beating frequency using the Fridericia formula cFPD=FPD/RR3 , where RR is the RR interval.
For each compound, we analysed the effects on FPD, beat rate and amplitude. We selected one MEA parameter based on their mechanism of action. FPD, that corresponds to the QT interval[59], was selected for compounds that are known to affect the QT time e.g., by targeting hERG or Ca^2+ channels. Beat rate was selected for compounds that target adrenergic receptors.
For the electrophysiology measurements, the chosen sample size was either 4 when using 24-well MEA plates with 12 electrodes per well and 8 when using 96-well MEA plates with 3 electrodes per well. The reported n stands for the number of wells (cardiac tissue models) per repetition of the study. Each test was repeated 3 times using 4–8 parallels in each concentration. Excel (Microsoft) was used for to calculate the p-values using Student’s two-tailed t-test. EC50 and IC50 values were calculated using non-linear fit four-parameters logistic equation Prism version 5.0. (GraphPad). The baseline values were used as Emin.

QT interval [2] = conditions: cited from earlier work
[3] = free plasma concentration from the literature; cited from earlier work
QT interval [4] = conditions: cited from earlier work; remark: listed apart in the source
[5] = tested on: hiPSC-derived cardiomyocytes; set-up: method as in PMID 28456566; conditions: cited from earlier work
calcium channels = tested on: calcium channels; set-up: method as in PMID 17078945; conditions: cited from earlier work
sodium channels = tested on: sodium channels; set-up: method as in PMID 10069689; conditions: canine atrial myocytes; cited from earlier work
[6] = set-up: method as in PMID 6599419; conditions: humans; cited from earlier work

Row | SMILES | Therapeutic concentration [3] | further results
1 | CC(=O)Oc1ccccc1C(=O)O [Acetyl salicylic acid] | – | signs of cardio activity or toxicity [1]: None
2 | COc1cc2nc(N(C)CCCNC(=O)C3CCCO3)nc(N)c2cc1OC (stereo not drawn) [Alfuzosin] | 56[21] nM | increase in FPD ([1]; at 300 nM, statistically significant): 20%; QT effect in patients (QT interval [2]; at high doses (100 nM)): mild QT increase; concentration that significantly prolongs the QT interval in vitro (QT interval [4]): 300 nM
3 | COc1ccc(CCN2CCC(Nc3nc4ccccc4n3Cc3ccc(F)cc3)CC2)cc1 [Astemizole] | 8[21] nM | –
4 | COc1cc(N)c(Cl)cc1C(=O)NC1CCN(CCCOc2ccc(F)cc2)CC1OC (stereo not drawn) [Cisapride] | 2.5[29] nM | –
5 | C[C@H]1O[C@@H](O[C@H]2[C@@H](O)C[C@H](O[C@H]3[C@@H](O)C[C@H](O[C@H]4CC[C@@]5(C)[C@H](CC[C@@H]6[C@@H]5C[C@@H](O)[C@]5(C)[C@@H](C7=CC(=O)OC7)CC[C@]65O)C4)O[C@@H]3C)O[C@@H]2C)C[C@H](O)[C@@H]1O [Digoxin] | 2.8[61] nM | –
6 | CN(CCOc1ccc(NS(C)(=O)=O)cc1)CCc1ccc(NS(C)(=O)=O)cc1 [Dofetilide] | 2[60] nM | –
7 | NCCc1ccc(O)c(O)c1 [Dopamine] | 300 (20% increase) nM | –
8 | COc1cccc2c1C(=O)c1c(O)c3c(c(O)c1C2=O)C[C@@](O)(C(=O)CO)C[C@@H]3O[C@H]1C[C@H](N)[C@H](O)[C@H](C)O1 [Doxorubicin] | – | changes to FPD, BPM or amplitude ([1]; short-term experiments, exposures up to 2 h): could not detect any; apoptosis of hiPSC-derived cardiomyocytes ([5]; after two days of exposure): increase; effect on FPD or beat rate ([5]; short exposures): not to affect
9 | CNC[C@H](O)c1ccc(O)c(O)c1 [Epinephrine] | 2.64[62] nM | –
10 | O=C(CCCN1CCC(O)(c2ccc(Cl)cc2)CC1)c1ccc(F)cc1 [Haloperidol] | 45[60] nM | –
11 | CCCCCCc1ccc(O)cc1O [Hexylresorcinol] | – | signs of cardio activity or toxicity [1]: None
12 | CC(C)Cc1ccc(C(C)C(=O)O)cc1 (stereo not drawn) [Ibuprofen] | – | signs of cardio activity or toxicity [1]: None
13 | CC(C)NCC(O)c1ccc(O)c(O)c1 (stereo not drawn) [Isoprenaline] | 0.84[63] nM | –
14 | COC(=O)C1=C(C)NC(C)=C(C(=O)OC(C)C)C1c1cccc2nonc12 (stereo not drawn) [Isradipine] | 80[61] nM | –
15 | C[C@@H]1CC(=O)NN=C1c1ccc(NN=C(C#N)C#N)cc1 [Levosimendan] | 129[21] nM | –
16 | CCN(CC)CC(=O)Nc1c(C)cccc1C [Lidocaine] | 2500[29] nM | –
17 | COc1c(N2C[C@@H]3CCCN[C@@H]3C2)c(F)cc2c(=O)c(C(=O)O)cn(C3CC3)c12 [Moxifloxasin] | 5600[60] nM | –
18 | COC(=O)C1=C(C)NC(C)=C(C(=O)OC)C1c1ccccc1[N+](=O)[O-] [Nifedipine] | 190[60] nM | –
19 | N=C(N)c1ccc(OCCCCCOc2ccc(C(=N)N)cc2)cc1 [Pentamidine] | 190[61] nM | effect on FPD (in words) [1]: could not detect any significant FPD prolongation
20 | O=c1[nH]c2ccccc2n1C1CCN(CCCC(c2ccc(F)cc2)c2ccc(F)cc2)CC1 [Pimozide] | 3.7[61] nM | –
21 | CC(C)NCC(O)COc1cccc2ccccc12 (stereo not drawn) [Propranolol] | 1095[64] nM | –
22 | C=C[C@H]1C[N@@]2CC[C@H]1C[C@@H]2[C@@H](O)c1ccnc2ccc(OC)cc12 [Quinidine] | 3240[60] nM | –
23 | COc1ccccc1OCC(O)CN1CCN(CC(=O)Nc2c(C)cccc2C)CC1 (stereo not drawn) [Ranolazine] | 6010[21] nM | –
24 | CC(C)NCC(O)c1ccc(NS(C)(=O)=O)cc1 (stereo not drawn) [Sotalol] | 13,000[60] nM | –
25 | CC(C)(C)c1ccc(C(O)CCCN2CCC(C(O)(c3ccccc3)c3ccccc3)CC2)cc1 (stereo not drawn) [Terfenadine] | 300[21] nM | IC50 (calcium channels): 185 nM; effect on FPD (in words) [1]: FPD shortening; increase in FPD before the shortening of FPD initiated ([1]; non-significant): 10%; IC50 (sodium channels): 930 nM
26 | CC(CC(c1ccccc1)c1ccccc1)NC(C)(C)C (stereo not drawn) [Terodiline] | 1800[60] nM | EC50 ([1]; Homo sapiens, Cardiomyocyte, as rounded in the discussion, read-out: amplitude EC50 concentration): 2600 nM; effect on FPD (in words) [1]: did not detect the expected FPD prolongation; toxic plasma concentration [6]: 2.1 µM
27 | Cc1ccc(O)c([C@H](CCN(C(C)C)C(C)C)c2ccccc2)c1 [Tolterodine] | 5 nM | QT interval in clinical use (QT interval [2]): does not prolong the QT interval; in vivo concentration corresponding to the QT-prolonging concentration in vitro (QT interval [4]; very high concentration in vitro): 340 nM
